Laboratory results taken from patent US4731486A, “Hydroformylation using low volatile phosphine ligands” (Union Carbide Corporation, priority 1986, dated 1988).
Where a name gives a salt, the structure may show the parent alone.

Columns and labels:
[1] = Solubility of metal salt ligands in different aldehydes; format: physicochemical
[2] = Continuous single pass hydroformylation of butene-1 (Examples 3, 4, 5, 7, 12)
Protocol: Continuous hydroformylation of butene-1 a monosulfonated triphenylphosphine metal salt ligand was conducted in the following manner.
The non-aqueous hydroformylation was conducted in a glass reactor operating in a continuous single pass butene-1 hydroformylation mode. The reactor consisted of a three-ounce pressure bottle submersed in an oil bath with a lass front for viewing. About 20-mL of a freshly prepared rhodium catalytic precursor solution was charged to the reactor with a syringe, after purging the system with nitrogen. […] After closing the reactor, the system was again purged with nitrogen and the oil bath was heated to furnish the desired hydroformylation reaction temperature. The hydroformylation reaction was conducted at a total gas pressure of about 160 psig., the partial pressures of hydrogen, carbon monoxide, and butene-1 being given in Table 3 below, the remainder being nitrogen and aldehyde product.
The flows of the feed gases (carbon monoxide, hydrogen, butene-1 and nitrogen) were controlled individually with mass flow meters and the feed gases dispersed into the precursor solution via microporous stainless steel spargers. The unreacted portion of the feed gases was stripped out with the product C5 aldehydes and the outlet gas analyzed over about 12 days of continuous operation.

[3] = Solubility of metal salt ligands in nonanal with added solubilizing agent; format: physicochemical; conditions: 25° C., nonanal with 1:4 CARBOWAX TPEG-900/TERGITOL NP-9
[4] = Batch hydroformylation of dodecene-1 (Examples 13, 14, 18, 19); conditions: heptanal, 100° C., 200 ppm Rh, 60 psia 2:1 H2:CO
[5] = Batch hydroformylation of propylene in stirred autoclave (Examples 1, 2, 11, 14, 19); conditions: 200 ppm Rh, about 120 mole equivalents ligand, 100° C., 90 psia 1:1:1 H2:CO:C3H6; for Linear/Branched Aldehyde Mole Ratio: Texanol/Carbowax PEG-600: Li 100:0, K 9:1, Rb 8:1, Ca 20:1, Ba 7:1; for Reaction Rate (C4 aldehydes): Texanol/Carbowax PEG-600: Li 100:0, K 9:1, Rb 8:1, Cs 7:1, Ca 20:1, Ba 7:1, Sr 18:1
Protocol: A series of various rhodium complex catalyst precursor solutions consisting essentially of the solubilized reaction product of rhodium dicarbonyl acetylacetonate and various monosulfonated triphenylphosphine metal salt ligands were prepared and employed to hydroformylate propylene into C4 aldehydes in the following manner.
Each rhodium catalytic precursor solution so prepared was then employed to hydroformylate propylene in a magnetically stirred, 100 mL capacity, stainless steel autoclave which was attached to a gas manifold for introducing gases to the desired partial pressures. The autoclave was also equipped with a pressure calibrator for determining reaction pressure to ±0.01 psia. and a platinum resistance thermometer for determining reactor solution temperatures to ±0.10° C. The reactor was heated externally by two 300 watt heating bands. The reactor solution temperature was controlled by a platinum resistance sensor connected to an external proportional temperature controller for controlling the temperature of the external band heaters.
In each non-aqueous hydroformylation reaction, about 15 milliliters (about 14 grams) of the rhodium catalytic precursor solution so prepared was charged to the autoclave reactor under nitrogen and heated to the reaction temperature employed (as given in Table 1 below). The reactor was then vented down to 5 psig. and a premixed gas mixture of 1:1:1 carbon monoxide:hydrogen:propylene was introduced into the reactor via the gas manifold (partial pressures given in Table 1) and the propylene so hydroformylated.
A comparison of the catalytic activity of aqueous and non-aqueous solutions of monosulfonated triphenylphosphine sodium salt ligand promoted catalysts in hydroformylating various molecular weight alphe-olefins was determined as follows.
Both the aqueous and non-aqueous hydroformylation reactions were conducted under identical conditions with regard to temperature, rhodium and ligand concentration, hydrogen and carbon monoxide partial pressure and olefin concentration.

[6] = Texanol/PEG-600 7:1, day 1.0, 101 °C, CO 18, H2 70, C4H8 11 psia
[7] = Texanol/PEG-600 7:1, day 1.8, 101 °C, CO 16, H2 62, C4H8 14 psia
[8] = Texanol/PEG-600 7:1, day 5.0, 101 °C, CO 12, H2 66, C4H8 19 psia
[9] = Texanol/PEG-600 7:1, day 5.9, 101 °C, CO 13, H2 66, C4H8 20 psia
[10] = Texanol/PEG-600 7:1, day 6.9, 101 °C, CO 14, H2 62, C4H8 22 psia
[11] = Texanol/PEG-600 7:1, day 7.0 (so in the source), […], CO 18, H2 62, C4H8 22 psia
[12] = Texanol/PEG-600 7:1, day 7.9, 101 °C, CO 16, H2 55, C4H8 24 psia
[13] = Texanol/PEG-600 7:1, day 9.0, […], CO 18, H2 60, C4H8 23 psia
[14] = Texanol/PEG-600 7:1, day 11.0, […], CO 19, H2 63, C4H8 21 psia
[15] = Texanol/PEG-600 7:1, day 11.7, […], CO 20, H2 63, C4H8 21 psia
[16] = Texanol/PEG-600 7:1, day 12.6, 103 °C, CO 20, H2 63, C4H8 22 psia
[17] = CARBOWAX PEG-600, two liquid organic layers
[18] = TERGITOL 15-S-7/Carbowax TPEG-990 (3:1)
[19] = TERGITOL 24-L-75N/CARBOWAX TPEG-990 (4:1)
[20] = Texanol, day 0.8, 101 °C, CO 18, H2 48, C4H8 19
[21] = Texanol, day 4.0, 101 °C, CO 17, H2 52, C4H8 49
[22] = Texanol, day 6.0, 101 °C, CO 17, H2 52, C4H8 50
[23] = Texanol, day 6.9, 101 °C, CO 19, H2 50, C4H8 41
[24] = Texanol, day 8.0, […], CO 18, H2 56, C4H8 38
[25] = Texanol, day 9.0, […], CO 18, H2 57, C4H8 38
[26] = Texanol, day 10.0, […], CO 18, H2 57, C4H8 38
[27] = Texanol, day 10.7, […], CO 18, H2 57, C4H8 38
[28] = Texanol, day 11.6, 103 °C, CO 18, H2 57, C4H8 38

## O=S(=O)(O)c1cccc(P(c2ccccc2)c2ccccc2)c1 [TPPMS-Ba, monosulfonated triphenylphosphine barium salt]
[1]; Butyraldehyde, 60 °C
  Metal Salt Solubility: 0.6 Wt. %
[1]; Heptanal, 80 °C
  Metal Salt Solubility: 0.2 Wt. %
[1]; Nonanal, 80 °C
  Metal Salt Solubility: 0.2 Wt. %
[1]; Propionaldehyde, 35 °C
  Metal Salt Solubility: 0.5 Wt. %
[1]; Tridecanal, 80 °C
  Metal Salt Solubility: 0.3 Wt. %
[1]; Valeraldehyde, 80 °C
  Metal Salt Solubility: 0.1 Wt. %
[2]; [6]
  Linear/Branched Aldehyde Mole Ratio: 6.91
  Rate (C5 aldehydes), daily average: 2.07 gmoles/L/Hr
[2]; [7]
  Linear/Branched Aldehyde Mole Ratio: 7.10
  Rate (C5 aldehydes), daily average: 2.10 gmoles/L/Hr
[2]; [8]
  Linear/Branched Aldehyde Mole Ratio: 7.12
  Rate (C5 aldehydes), daily average: 2.51 gmoles/L/Hr
[2]; [9]
  Linear/Branched Aldehyde Mole Ratio: 7.03
  Rate (C5 aldehydes), daily average: 2.52 gmoles/L/Hr
[2]; [10]
  Linear/Branched Aldehyde Mole Ratio: 6.32
  Rate (C5 aldehydes), daily average: 2.71 gmoles/L/Hr
[2]; [11]
  Linear/Branched Aldehyde Mole Ratio: 6.02
  Rate (C5 aldehydes), daily average: 2.60 gmoles/L/Hr
[2]; [12]
  Linear/Branched Aldehyde Mole Ratio: 6.16
  Rate (C5 aldehydes), daily average: 2.71 gmoles/L/Hr
[2]; [13]
  Linear/Branched Aldehyde Mole Ratio: 6.01
  Rate (C5 aldehydes), daily average: 2.73 gmoles/L/Hr
[2]; [14]
  Linear/Branched Aldehyde Mole Ratio: 6.20
  Rate (C5 aldehydes), daily average: 2.46 gmoles/L/Hr
[2]; [15]
  Linear/Branched Aldehyde Mole Ratio: 6.14
  Rate (C5 aldehydes), daily average: 2.37 gmoles/L/Hr
[2]; [16]
  Linear/Branched Aldehyde Mole Ratio: 5.85
  Rate (C5 aldehydes), daily average: 2.30 gmoles/L/Hr
[3]
  Metal Salt Solubility: 33 Wt. %
[4]; [17]
  Linear/Branched Aldehyde Mole Ratio: 10.0
  Reaction Rate: 1.22 G moles/L/hr
[4]; [18]
  Linear/Branched Aldehyde Mole Ratio: 9.4
  Reaction Rate: 0.45 G moles/L/hr
[4]; [19]
  Linear/Branched Aldehyde Mole Ratio: 10.9
  Reaction Rate: 0.76 G moles/L/hr
[5]
  Linear/Branched Aldehyde Mole Ratio: 4.1
  Reaction Rate (C4 aldehydes): 1.43 Gmoles/L/Hr

## O=S(=O)(O)c1cccc(P(c2ccccc2)c2ccccc2)c1 [TPPMS-Li, monosulfonated triphenylphosphine lithium salt]
[1]; Butyraldehyde, 60 °C, lithium salt
  Metal Salt Solubility: 0.5 Wt. %
[1]; Heptanal, 80 °C, lithium salt
  Metal Salt Solubility: < 0.7 Wt. %
[1]; Nonanal, 80 °C, lithium salt
  Metal Salt Solubility: < 0.5 Wt. %
[1]; Propionaldehyde, 35 °C, lithium salt
  Metal Salt Solubility: 8.8 Wt. %
[1]; Tridecanal, 80 °C, lithium salt
  Metal Salt Solubility: < 0.5 Wt. %
[1]; Valeraldehyde, 80 °C, lithium salt
  Metal Salt Solubility: < 0.5 Wt. %
[2]; [20]
  Linear/Branched Aldehyde Mole Ratio: 30.34
  Rate (C5 aldehydes), daily average: 1.02 gmoles/L/Hr
[2]; [21]
  Linear/Branched Aldehyde Mole Ratio: 11.20
  Rate (C5 aldehydes), daily average: 1.25 gmoles/L/Hr
[2]; Texanol, day 4.8, 101 °C, CO 17, H2 52, C4H8 50
  Rate (C5 aldehydes), daily average: 1.19 gmoles/L/Hr
[2]; [22]
  Linear/Branched Aldehyde Mole Ratio: 2.98
  Rate (C5 aldehydes), daily average: 1.27 gmoles/L/Hr
[2]; [23]
  Linear/Branched Aldehyde Mole Ratio: 31.75
  Rate (C5 aldehydes), daily average: 1.28 gmoles/L/Hr
[2]; [24]
  Linear/Branched Aldehyde Mole Ratio: 40.30
  Rate (C5 aldehydes), daily average: 1.28 gmoles/L/Hr
[2]; [25]
  Linear/Branched Aldehyde Mole Ratio: 28.90
  Rate (C5 aldehydes), daily average: 1.30 gmoles/L/Hr
[2]; [26]
  Linear/Branched Aldehyde Mole Ratio: 29.63
  Rate (C5 aldehydes), daily average: 1.27 gmoles/L/Hr
[2]; [27]
  Linear/Branched Aldehyde Mole Ratio: 37.18
  Rate (C5 aldehydes), daily average: 1.27 gmoles/L/Hr
[2]; [28]
  Linear/Branched Aldehyde Mole Ratio: 30.18
  Rate (C5 aldehydes), daily average: 1.21 gmoles/L/Hr
[3]; lithium salt
  Metal Salt Solubility: 12 Wt. %
[5]; lithium salt
  Linear/Branched Aldehyde Mole Ratio: 6.3
  Reaction Rate (C4 aldehydes): 0.35 Gmoles/L/Hr
